Data taken from US20100190737A1, “COMPOSITIONS COMPRISING INOSINE AND OROTIC ACID AND METHODS OF USE THEREOF FOR THE TREATMENT OF CERTAIN HEART CONDITIONS AND ENHANCEMENT OF WORK CAPACITY” (NUTRITIONAL RESEARCH GROUP LLC, priority 2009, published 2010).

Tests used:
white rats = test: Long-term (6 months) work capacity in trained and non-trained rats; settings: for Glycogen in m. quadriceps, After work / Glycogen in m. quadriceps, In rest: end of experiments; for Swimming time After 6 mo.: INO 25 mg/kg, PO 50 mg/kg
Protocol: Seventy two white rats were randomly placed in 6 groups (12 animals each), to test the effectiveness of training and to determine morphological and physiological alterations in the rats. In Group I, control rats were nontrained and not administered either of inosine or the combination of inosine and orotate; Group II comprised non-trained rats to which were administered inosine (25 mg/kg/body weight; Group III comprised non-trained rats to which were administered the combination of inosine plus potassium orotate (25 mg/kg/body weight of inosine and 50 mg/kg/body weight potassium orotate); Group IV comprised trained rats that were not administered either of inosine or the combination of inosine and orotate; Group V comprised trained rats to which was administered inosine alone (25 mg/kg/body weight), and Group VI comprised trained rats to which was administered the combination of inosine plus potassium orotate (25 mg/kg/body weight of inosine and 50 mg/kg/body weight potassium orotate).
Training of rats consisted of their forced swimming in a water bath (28-30° C.) with a weight fixed on their backs (7.5% of the rat body weight). During the first two weeks the animals swam daily for 5-10 minutes, after which we determined the individual maximum time of swimming to exhaustion (i.e. maximum work capacity) for each animal and then calculated the mean maximum time for each group. After 2 weeks these initial maximum work capacity values were used for planning and performing additional swimming training.
The functional condition of the rats at rest was estimated from their work capacity (maximum swimming time), body weight increase, EKG tests, oxygen consumption and sodium and potassium levels in the myocardium in a relatively quiet state. The morphological state of the heart and other viscera were rated from their absolute and relative weights, and also from histological and histochemical examinations of the myocardium. Also determined were the amounts of glycogen in the m. quadriceps (quadriceps group of muscles) of the hip, the myocardium and the liver. All the quantitative results obtained were processed with conventional statistical procedures.

[1] = system: chinchilla rabbits with experimental myocardial infarction; test: Experimentally-induced myocardial infarction (coronary artery ligation); assay type: in vivo, rabbit; settings: for NN of Animals With Necrosis: of 10 animals; for EKG Q: oral 100 mg/kg BW of each ingredient daily
Protocol: Histological, light microscopic methods of investigation have been employed to study the zone of necrosis, perinecrotic zone and myocardium regions spaced from the time of infarction by 7 and 14 days after the infarction event. Dynamic electrocardiographic observation over the animals was carried out during the first day and during the following 7 and 14 days. The study of the total cross-sectional patterns of a rabbit's heart has made it possible to precisely define these zones. The first Group of 10 animals was sham-operated without treatment (Group I, positive control-Intact, no MI). […] Group II animals were without treatment (negative control-MI Control).

mice = test: Short term (14 day) work capacity: swimming lengths within 30 minutes, hepatic glycogen; assay type: in vivo, mouse
Protocol: Seventy two animals (mice) were divided into 12 groups of 6 animals each; a control group (untreated) and 11 test groups that were intragastrically administered varying daily doses of inosine, potassium orotate or an inosine plus potassium orotate combination (the “combination”) for 14 days. […] The swimming exercise consisted of forcing the animals to perform repetitive swimming in a three meter long channel until exhaustion. The level of exhaustion was determined by a count of the number of swimming lengths which each animal did within 30 minutes. A lower number of swimming lengths indicated a greater level of exhaustion, whereas a higher number of lengths indicated a greater work capacity.

For `OC[C@H]1O[C@@H](n2cnc3c(O)ncnc32)[C@H](O)[C@@H]1O` [inosine], the animal body weights (white rats; after 6 months) was “did not materially alter animal body weights”, the “HEART RATE” value (white rats; after 6 months training) was 300 ± 5.2 beats per minute and the PQ (white rats; after 6 months training) was 0.047 ± 0.03. For the same compound, the QRS (white rats; after 6 months training) was 0.031 ± 0.004, the QT (white rats; after 6 months training) was 0.076 ± 0.001 and the “Systolic Index” value (white rats; after 6 months training) was 38 ± 6.3. The ΣR (white rats; after 6 months training) was 17 ± 0.5 mm, the “toxic effects on the functional state of the animals, morphology of the myocardium” value (white rats; rat, in vivo) was “did not manifest any toxic effects” and the “Heart weight after 6 mo.” value (white rats; trained rats) was 359 ± 3.9 mg/100gk BW. The “ORGAN WEIGHT Heart” value (white rats; trained rats) was 359.3 ± 4.5 mg PER 100 GRAMs Body Weight, the “P/S In all rats group” value (white rats; trained rats) was 1.34 ± 0.12 and the “P/S In quiet state” value (white rats; trained rats) was 1.16 ± 0.08. For the same compound, the “P/S In rat sacrificed after intense physical exercise” value (white rats; trained rats) was 1.55 ± 0.04, the “Potassium (myocardium)” value (white rats; trained rats) was 0408 ± 0.015 mcq/gram dry tissue and the “Sodium (myocardium)” value (white rats; trained rats) was 0.304 ± 0.018 mcq/gram dry tissue. For the same compound, the “Swimming time Before” value (white rats; trained rats) was 65 ± 6.6 min, the “Glycogen in m. quadriceps, After work” value (white rats; trained rats) was 558 ± 13.4 and the “Glycogen in m. quadriceps, In rest” value (white rats; trained rats) was 889 ± 26.0. For the same compound, the “Swimming time After 6 mo.” value (white rats; trained rats, trained control 142 ± 2.4) was 180 ± 3.4 min, the “Heart weight after 6 mo.” value (white rats; untrained rats) was 302 ± 91 mg/100gk BW and the “ORGAN WEIGHT Heart” value (white rats; untrained rats) was 309.4 ± 9.7 mg PER 100 GRAMs Body Weight. The “Oxygen consumption End of experiment” value (white rats; untrained rats) was 26.0 ± 0.82 ml/min/kg BW, the “P/S In all rats group” value (white rats; untrained rats) was 1.85 ± 0.05 and the “P/S In quiet state” value (white rats; untrained rats) was 2.01 ± 0.3. For the same compound, the “P/S In rat sacrificed after intense physical exercise” value (white rats; untrained rats) was 1.67 ± 0.09, the “Potassium (myocardium)” value (white rats; untrained rats) was 0481 ± 0.03 mcq/gram dry tissue and the “Sodium (myocardium)” value (white rats; untrained rats) was 0.261 ± 0.018 mcq/gram dry tissue. The “Swimming time Before” value (white rats; untrained rats) was 65 ± 5.0 min, the “Glycogen in m. quadriceps, After work” value (white rats; untrained rats) was 450 ± 28.3 and the “Glycogen in m. quadriceps, In rest” value (white rats; untrained rats) was 829 ± 42.0. For the same compound, the “Swimming time After 6 mo.” value (white rats; untrained rats) was 70 ± 4.0 min, the “HEART RATE” value (white rats; untrained, after 6 months) was 452 ± 8.6 beats per minute and the PQ (white rats; untrained, after 6 months) was 0.054 ± 0.003. For the same compound, the QRS (white rats; untrained, after 6 months) was 0.026 ± 0.003, the QT (white rats; untrained, after 6 months) was 0.06 ± 0.001 and the “Systolic Index” value (white rats; untrained, after 6 months) was 42.5 ± 9.7. The ΣR (white rats; untrained, after 6 months) was 14 ± 0.7 mm, the “Thickness of Left Ventricular Wall” value ([1]; Day 7) was 5.2 ± 0.72 mm and the “EKG R” value ([1]; Day 7, 100 mg/kg BW each) was 4.1 ± 0.30 mm. For the same compound, the “NN of Animals With Necrosis” value ([1]; Day 7, MI control 10) was 5, the “EKG Q” value ([1]; Day 7) was 1.1 ± 0.03 mm and the “EKG QRS” value ([1]; Day 14) was 0.068 ± 0.003 s. For the same compound, the “EKG R” value ([1]; Day 14) was 4.3 ± 0.28 mm, the “Thickness of Left Ventricular Wall” value ([1]; Day 14) was 5.6 ± 0.21 mm and the “NN of Animals With Necrosis” value ([1]; Day 14, MI control 3) was 0. The “EKG Q” value ([1]; Day 14) was 0.8 ± 0.02 mm, the reduction in necroses ([1]; administered individually, 100 mg/kg) was 50% and the “hemorrhages or infiltration in the infarction zone” value ([1]; by the fourteenth day) was “virtually had no hemorrhages or infiltration in the infarction zone”. For the same compound, the “restoration of EKG readings” value ([1]; by the seventh experimental day) was “nearly a complete restoration of the voltage of EKG waves and of the systolic index”, the Swimming lengths (mice; 12.5 mg/kg BW daily for 14 days intragastrically, within 30 minutes, control 24.9) was 33.9 and the “increase in number of swimming lengths” value (mice; 12.5 mg/kg/body weight daily, 14 days) was 35.4%. For the same compound, the Swimming lengths (mice; 25 mg/kg BW, 14 days) was 46.4, the “increase in number of swimming lengths” value (mice; 25 mg/kg/body weight daily, 14 days) was 85.6% and the Swimming lengths (mice; 50 mg/kg BW, 14 days) was 39.6. For the same compound, the “increase in number of swimming lengths” value (mice; 50 mg/kg/body weight daily, 14 days) was 58.5%, the Swimming lengths (mice; 100 mg/kg BW, 14 days) was 31.1 and the “increase in number of swimming lengths” value (mice; 100 mg/kg/body weight daily, 14 days) was 24.3%. The “mean decrease of hepatic glycogen stores during the swimming exercise” value (mice; controls 67.5% from baseline) was 24.5% and the “increased hepatic glycogen content” value (mice; inosine 25 mg/kg, potassium orotate 50 mg/kg, or combination) was 21%.
